Consider six compounds from patent publication US20050137223A1, “Glucoimidazole and polyhydroxycyclohexenyl amine derivatives to treat gaucher disease” (Amicus Therapeutics, Inc., priority 2003, published 2005).

The target in data set [1] is T1, GCase (Homo sapiens, UniProt P04062).
T1 sequence (P04062 40-536): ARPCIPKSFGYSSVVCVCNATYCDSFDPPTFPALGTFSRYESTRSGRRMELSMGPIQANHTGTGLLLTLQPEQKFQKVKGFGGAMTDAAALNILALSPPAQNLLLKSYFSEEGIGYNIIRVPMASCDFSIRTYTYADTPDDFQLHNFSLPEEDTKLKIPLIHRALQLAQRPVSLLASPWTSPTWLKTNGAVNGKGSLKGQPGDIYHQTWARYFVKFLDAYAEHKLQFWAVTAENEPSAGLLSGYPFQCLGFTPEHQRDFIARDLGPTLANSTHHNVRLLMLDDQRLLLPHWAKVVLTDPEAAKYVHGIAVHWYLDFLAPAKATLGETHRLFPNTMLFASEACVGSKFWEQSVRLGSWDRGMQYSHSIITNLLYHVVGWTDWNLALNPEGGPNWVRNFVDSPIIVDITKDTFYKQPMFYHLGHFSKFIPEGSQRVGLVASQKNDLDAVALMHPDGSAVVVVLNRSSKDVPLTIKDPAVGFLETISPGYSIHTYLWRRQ
The data set can be described thus: Inhibitory activity against GCase (4-methylumbelliferyl β-glucoside substrate). It counts as biochemical. The following applies: for IC50: human GCase, 3 mM 4-MU β-glucoside, pH 5.2, 37° C., 30 min; for increase of inhibitory potency relative to 2-PE-GIZ: phenylethyl group replaced with octyl or dimethylbutyl at the same position. The protocol: Methods. […] The compounds were added to each reaction mixture individually at the final concentration indicated. After incubation with the diluted human GCase at 37° C. for 30 min, the reaction was stopped by addition of 0.2 M glycine buffer, pH 10.8, the released 4-methylumbelliferone was determined by a fluoremeter at excitation wavelength of 355 nm and emission wavelength at 460 nm, respectively. The relative enzyme activity was calculated as a percentage to those of reactions without inhibitors. IC50 was calculated using Prism sigmoid plot.

Data set [2] has as its target T2, GCase in fibroblasts from Gaucher patients with N370S/N370S mutation (Homo sapiens, UniProt P04062, N409S).
T2 construct: endogenous in cells; host or cells: fibroblasts from Gaucher patients homozygous for N370S
T2 sequence (P04062 40-536 N409S): T1 sequence (P04062 40-536) with N370S
The data set can be described thus: Chaperone activity for GCase in Gaucher patient fibroblasts (residual enzyme activity). The class given is cell-based. The note with it: cultured with compound for 4 days. The protocol:
Methods. Fibroblasts established from Gaucher patients with N370S/N370S mutation were cultured in DMEM medium supplemented with 10% fetal bovine serum and antibiotics at 37° C. under 5% CO2. The GIZ was added into the culture medium at the final concentrations for 4 days prior to the assay. After washing the cells with phosphate-buffered saline, the cells were harvested and homogenized in the presence of 0.25% (w/v) sodium taurocholate and 0.1% (v/v) Triton X-100 in McIlvaine buffer (pH 5.2, Reaction Buffer), and 10 μl of the lysate was used for the determination of residual enzyme activity. The activity of the GCase was determined with 3 mM 4-MU-β-Glc in the Reaction Buffer at 37° C. for 1 hr as conduritol B epoxide (CBE)-sensitive activity in parallel assays without or with pre-incubation with CBE at 1.25 mM for 30 min at room temperature. Protein concentrations in the cell lysates were determined using micro BCA protein assay kit from Pierce.

For data set [3] the following is noted: shortly after the start of the treatment; cited from earlier work.
Data set [4] has as its target T1, GCase. The note with it: literature values (Ogawa et al.); read-out: IC50 against GCase; cited from earlier work.

Each structure is given as a SMILES string. Changes are numbered by the printed parent chain. Read-outs that look alike come from different tables or passages of the source.

For orientation: IC50 means the midpoint of a concentration-inhibition curve. For the compound `CC(C)(C)CCc1cn2c(n1)[C@H](O)[C@@H](O)[C@H](O)[C@H]2CO` [2-Dimethylbutyl GIZ, (5R,6R,7S,8S)-5-Hydroxymethyl-2-(3,3-dimethylbutyl)-5,6,7,8-tetrahydroimidazo[1,2-a]pyridine-6,7,8-triol], at GCase [1], the IC50 came to 0.03 nM and the “increase of inhibitory potency relative to 2-PE-GIZ” value was roughly 37 fold.
In the same order, the values of `CCCCCCCCc1cn2c(n1)[C@H](O)[C@@H](O)[C@H](O)[C@H]2CO` [2-Octyl GIZ, (5R,6R,7S,8S)-5-Hydroxymethyl-2-n-octyl-5,6,7,8-tetrahydroimidazo[1,2-a]pyridine-6,7,8-triol] are 0.07 nM and “approximately 15 fold”.
In the case of `OC[C@@H]1[C@@H](O)[C@H](O)[C@@H](O)c2nc(CCc3ccccc3)cn21` [2-Phenylethyl GIZ, (5R,6R,7S,8S)-5-hydroxymethyl-2-phenethyl-5,6,7,8-tetrahydroimidazo[1,2-a]pyridine-6,7,8-triol], half-maximal inhibition against GCase [1] (IC50) required 1.1 nM.
`OC[C@@H]1[C@@H](O)[C@H](O)[C@@H](O)c2nccn21` [GIZ, (5R,6R,7S,8S)-5-hydroxymethyl-5,6,7,8-tetrahydroimidazo[1,2-a]pyridine-6,7,8-triol] showed an IC50 at GCase [1] of 87 nM. Moreover, in data set [2], the “increase of residual enzyme activity in patient cells” value is “approximately 2 fold” and the “optimal concentration for the maximum enhancement” value was roughly 300 µM.
For `CCCCN1C[C@H](O)[C@@H](O)[C@H](O)[C@H]1CO` [N-butyl 1-deoxynojirimycin (NB-DNJ), N-butyl 1-deoxynojirimycin], the “patients with diarrhea (most frequent adverse effect)” value in data set [3] is recorded as 79%.
In the case of `CCCCCCCCN[C@@H]1C=C(CO)[C@@H](O)[C@H](O)[C@H]1O` [N-octyl valienamine], the IC50 at GCase [4] is roughly 300 nM.
